Columns and labels:
Experiment in all cases: relative viability (nuclei count vs DMSO), 5 days (fraction); higher = more cells survive
Tipifarnib + Pictilisib = compound: Cn1cncc1[C@@](N)(c1ccc(Cl)cc1)c1ccc2c(c1)c(-c1cccc(Cl)c1)cc(=O)n2C [Tipifarnib] + CS(=O)(=O)N1CCN(Cc2cc3nc(-c4cccc5[nH]ncc45)nc(N4CCOCC4)c3s2)CC1 [Pictilisib] (partner 1 µM)
How it was run: (§1)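 Values are medians from duplicate plates. Each reflects relative viability, defined as the nuclei count of treated wells over that of vehicle wells. Lung cancer cell lines in 1536-well plates were pin-tool dosed one day after seeding with one drug alone or with a fixed anchor-drug dose plus five library-drug doses (not always all listed) in √10 steps, then fixed, stained and imaged at 4× after 5 days.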

Tipifarnib + Crizotinib = compound: Cn1cncc1[C@@](N)(c1ccc(Cl)cc1)c1ccc2c(c1)c(-c1cccc(Cl)c1)cc(=O)n2C [Tipifarnib] + C[C@@H](Oc1cc(-c2cnn(C3CCNCC3)c2)cnc1N)c1c(Cl)ccc(F)c1Cl [Crizotinib] (partner 1 µM)
How it was run: as §1

Tipifarnib + Alpelisib = compound: Cn1cncc1[C@@](N)(c1ccc(Cl)cc1)c1ccc2c(c1)c(-c1cccc(Cl)c1)cc(=O)n2C [Tipifarnib] + Cc1nc(NC(=O)N2CCC[C@H]2C(N)=O)sc1-c1ccnc(C(C)(C)C(F)(F)F)c1 [Alpelisib] (partner 2 µM)
How it was run: as §1

Tipifarnib + Lapatinib = compound: Cn1cncc1[C@@](N)(c1ccc(Cl)cc1)c1ccc2c(c1)c(-c1cccc(Cl)c1)cc(=O)n2C [Tipifarnib] + CS(=O)(=O)CCNCc1ccc(-c2ccc3ncnc(Nc4ccc(OCc5cccc(F)c5)c(Cl)c4)c3c2)o1 [Lapatinib] (partner 2 µM)
How it was run: as §1

Tipifarnib + Bortezomib = compound: Cn1cncc1[C@@](N)(c1ccc(Cl)cc1)c1ccc2c(c1)c(-c1cccc(Cl)c1)cc(=O)n2C [Tipifarnib] + CC(C)C[C@H](NC(=O)[C@H](Cc1ccccc1)NC(=O)c1cnccn1)B(O)O [Bortezomib] (partner 0.002 µM)
How it was run: as §1

Tipifarnib + Olaparib = compound: Cn1cncc1[C@@](N)(c1ccc(Cl)cc1)c1ccc2c(c1)c(-c1cccc(Cl)c1)cc(=O)n2C [Tipifarnib] + O=C(c1cc(Cc2n[nH]c(=O)c3ccccc23)ccc1F)N1CCN(C(=O)C2CC2)CC1 [Olaparib] (partner 8 µM)
How it was run: as §1

Tipifarnib + Navitoclax = compound: Cn1cncc1[C@@](N)(c1ccc(Cl)cc1)c1ccc2c(c1)c(-c1cccc(Cl)c1)cc(=O)n2C [Tipifarnib] + CC1(C)CCC(c2ccc(Cl)cc2)=C(CN2CCN(c3ccc(C(=O)NS(=O)(=O)c4ccc(N[C@H](CCN5CCOCC5)CSc5ccccc5)c(S(=O)(=O)C(F)(F)F)c4)cc3)CC2)C1 [Navitoclax] (partner 0.5 µM)
How it was run: as §1

Tipifarnib + Foretinib = compound: Cn1cncc1[C@@](N)(c1ccc(Cl)cc1)c1ccc2c(c1)c(-c1cccc(Cl)c1)cc(=O)n2C [Tipifarnib] + COc1cc2c(Oc3ccc(NC(=O)C4(C(=O)Nc5ccc(F)cc5)CC4)cc3F)ccnc2cc1OCCCN1CCOCC1 [Foretinib] (partner 0.25 µM)
How it was run: as §1

Tipifarnib + Linsitinib = compound: Cn1cncc1[C@@](N)(c1ccc(Cl)cc1)c1ccc2c(c1)c(-c1cccc(Cl)c1)cc(=O)n2C [Tipifarnib] + C[C@]1(O)C[C@@H](c2nc(-c3ccc4ccc(-c5ccccc5)nc4c3)c3c(N)nccn32)C1 [Linsitinib] (partner 1 µM)
How it was run: as §1

Tipifarnib = compound: Cn1cncc1[C@@](N)(c1ccc(Cl)cc1)c1ccc2c(c1)c(-c1cccc(Cl)c1)cc(=O)n2C [Tipifarnib]
How it was run: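 Five library-drug doses spaced by √10 were pinned onto vehicle-anchored 1536-well plates of lung cancer cell lines that had been kept overnight at 37 °C. Cells went 5 days without medium change, then were fixed, permeabilised and Hoechst-stained together, imaged at 4× and counted by MetaXpress. Viability is the ratio of treated-well to vehicle-well nuclei, taken as a median over plates. Plates required control CV below 25% and at least one doubling.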

Tipifarnib + Luminespib = compound: Cn1cncc1[C@@](N)(c1ccc(Cl)cc1)c1ccc2c(c1)c(-c1cccc(Cl)c1)cc(=O)n2C [Tipifarnib] + CCNC(=O)c1noc(-c2cc(C(C)C)c(O)cc2O)c1-c1ccc(CN2CCOCC2)cc1 [Luminespib] (partner 0.01 µM)
How it was run: as §1

Tipifarnib + Dasatinib = compound: Cn1cncc1[C@@](N)(c1ccc(Cl)cc1)c1ccc2c(c1)c(-c1cccc(Cl)c1)cc(=O)n2C [Tipifarnib] + Cc1nc(Nc2ncc(C(=O)Nc3c(C)cccc3Cl)s2)cc(N2CCN(CCO)CC2)n1 [Dasatinib] (partner 0.075 µM)
How it was run: as §1

Tipifarnib + Phenformin = compound: Cn1cncc1[C@@](N)(c1ccc(Cl)cc1)c1ccc2c(c1)c(-c1cccc(Cl)c1)cc(=O)n2C [Tipifarnib] + N=C(N)NC(=N)NCCc1ccccc1 [Phenformin] (partner 250 µM)
How it was run: as §1

Tipifarnib + OSI-027 = compound: Cn1cncc1[C@@](N)(c1ccc(Cl)cc1)c1ccc2c(c1)c(-c1cccc(Cl)c1)cc(=O)n2C [Tipifarnib] + COc1cccc2cc(-c3nc([C@H]4CC[C@H](C(=O)O)CC4)n4ncnc(N)c34)[nH]c12 [OSI-027] (partner 0.5 µM)
How it was run: as §1

Tipifarnib + Tozasertib = compound: Cn1cncc1[C@@](N)(c1ccc(Cl)cc1)c1ccc2c(c1)c(-c1cccc(Cl)c1)cc(=O)n2C [Tipifarnib] + Cc1cc(Nc2cc(N3CCN(C)CC3)nc(Sc3ccc(NC(=O)C4CC4)cc3)n2)n[nH]1 [Tozasertib] (partner 0.1 µM)
How it was run: as §1

NCI-H1299 gave a relative viability (Tipifarnib + Pictilisib; first compound 0.01 µM) of 0.64, a relative viability (Tipifarnib + Pictilisib; first compound 0.03162 µM) of 0.837 and a relative viability (Tipifarnib + Pictilisib; first compound 0.1 µM) of 0.422. The relative viability (Tipifarnib + Pictilisib; first compound 0.3162 µM) was 0.35, the relative viability (Tipifarnib + Pictilisib; first compound 1 µM) was 0.298 and the relative viability (Tipifarnib + Crizotinib; first compound 0.01 µM) was 0.903. It also gave a relative viability (Tipifarnib + Crizotinib; first compound 0.03162 µM) of 0.841, a relative viability (Tipifarnib + Crizotinib; first compound 0.1 µM) of 0.795 and a relative viability (Tipifarnib + Crizotinib; first compound 0.3162 µM) of 0.832. The relative viability (Tipifarnib + Crizotinib; first compound 1 µM) was 0.81, the relative viability (Tipifarnib + Alpelisib; first compound 0.01 µM) was 1.04 and the relative viability (Tipifarnib + Alpelisib; first compound 0.03162 µM) was 1.04. The relative viability (Tipifarnib + Alpelisib; first compound 0.1 µM) was 0.971, the relative viability (Tipifarnib + Alpelisib; first compound 0.3162 µM) was 0.973 and the relative viability (Tipifarnib + Alpelisib; first compound 1 µM) was 0.941. It also gave a relative viability (Tipifarnib + Lapatinib; first compound 0.01 µM) of 0.998, a relative viability (Tipifarnib + Lapatinib; first compound 0.03162 µM) of 0.9 and a relative viability (Tipifarnib + Lapatinib; first compound 0.1 µM) of 0.915. It also gave a relative viability (Tipifarnib + Lapatinib; first compound 0.3162 µM) of 0.845, a relative viability (Tipifarnib + Lapatinib; first compound 1 µM) of 0.836 and a relative viability (Tipifarnib + Bortezomib; first compound 0.01 µM) of 0.988. For the same cell line, the relative viability (Tipifarnib + Bortezomib; first compound 0.03162 µM) was 0.954, the relative viability (Tipifarnib + Bortezomib; first compound 0.1 µM) was 0.929 and the relative viability (Tipifarnib + Bortezomib; first compound 0.3162 µM) was 0.847. For the same cell line, the relative viability (Tipifarnib + Bortezomib; first compound 1 µM) was 0.816, the relative viability (Tipifarnib + Olaparib; first compound 0.01 µM) was 0.984 and the relative viability (Tipifarnib + Olaparib; first compound 0.03162 µM) was 0.932. It also gave a relative viability (Tipifarnib + Olaparib; first compound 0.1 µM) of 0.973, a relative viability (Tipifarnib + Olaparib; first compound 0.3162 µM) of 0.791 and a relative viability (Tipifarnib + Olaparib; first compound 1 µM) of 0.783. For the same cell line, the relative viability (Tipifarnib + Navitoclax; first compound 0.01 µM) was 0.966, the relative viability (Tipifarnib + Navitoclax; first compound 0.03162 µM) was 0.969 and the relative viability (Tipifarnib + Navitoclax; first compound 0.1 µM) was 0.977. For the same cell line, the relative viability (Tipifarnib + Navitoclax; first compound 0.3162 µM) was 0.88, the relative viability (Tipifarnib + Navitoclax; first compound 1 µM) was 0.828 and the relative viability (Tipifarnib + Foretinib; first compound 0.01 µM) was 1.06. The relative viability (Tipifarnib + Foretinib; first compound 0.03162 µM) was 1.04, the relative viability (Tipifarnib + Foretinib; first compound 0.1 µM) was 1 and the relative viability (Tipifarnib + Foretinib; first compound 0.3162 µM) was 0.947. It also gave a relative viability (Tipifarnib + Foretinib; first compound 1 µM) of 0.979, a relative viability (Tipifarnib + Linsitinib; first compound 0.01 µM) of 1.06 and a relative viability (Tipifarnib + Linsitinib; first compound 0.03162 µM) of 0.886. It also gave a relative viability (Tipifarnib + Linsitinib; first compound 0.1 µM) of 0.906, a relative viability (Tipifarnib + Linsitinib; first compound 0.3162 µM) of 0.803 and a relative viability (Tipifarnib + Linsitinib; first compound 1 µM) of 0.635. For the same cell line, the relative viability (Tipifarnib; 0.01 µM) was 1.04, the relative viability (Tipifarnib; 0.03162 µM) was 0.937 and the relative viability (Tipifarnib; 0.1 µM) was 0.958. For the same cell line, the relative viability (Tipifarnib; 0.3162 µM) was 0.836 and the relative viability (Tipifarnib; 1 µM) was 0.832.
In the case of NCI-H1623, the relative viability (Tipifarnib + Luminespib; first compound 0.01 µM) is reported as 0.647, the relative viability (Tipifarnib + Luminespib; first compound 0.03162 µM) is reported as 0.37 and the relative viability (Tipifarnib + Luminespib; first compound 0.1 µM) is reported as 0.411. For the same cell line, the relative viability (Tipifarnib + Luminespib; first compound 0.3162 µM) was 0.412, the relative viability (Tipifarnib + Luminespib; first compound 1 µM) was 0.325 and the relative viability (Tipifarnib + Dasatinib; first compound 0.01 µM) was 0.547. It also gave a relative viability (Tipifarnib + Dasatinib; first compound 0.03162 µM) of 0.493, a relative viability (Tipifarnib + Dasatinib; first compound 0.1 µM) of 0.551 and a relative viability (Tipifarnib + Dasatinib; first compound 0.3162 µM) of 0.583. For the same cell line, the relative viability (Tipifarnib + Dasatinib; first compound 1 µM) was 0.293, the relative viability (Tipifarnib + Phenformin; first compound 0.01 µM) was 0.603 and the relative viability (Tipifarnib + Phenformin; first compound 0.03162 µM) was 0.556. The relative viability (Tipifarnib + Phenformin; first compound 0.1 µM) was 0.553, the relative viability (Tipifarnib + Phenformin; first compound 0.3162 µM) was 0.565 and the relative viability (Tipifarnib + Phenformin; first compound 1 µM) was 0.374. The relative viability (Tipifarnib + OSI-027; first compound 0.01 µM) was 0.4, the relative viability (Tipifarnib + OSI-027; first compound 0.03162 µM) was 0.426 and the relative viability (Tipifarnib + OSI-027; first compound 0.1 µM) was 0.418. It also gave a relative viability (Tipifarnib + OSI-027; first compound 0.3162 µM) of 0.361, a relative viability (Tipifarnib + OSI-027; first compound 1 µM) of 0.319 and a relative viability (Tipifarnib + Foretinib; first compound 0.01 µM) of 0.904. For the same cell line, the relative viability (Tipifarnib + Foretinib; first compound 0.03162 µM) was 0.954, the relative viability (Tipifarnib + Foretinib; first compound 0.1 µM) was 0.911 and the relative viability (Tipifarnib + Foretinib; first compound 0.3162 µM) was 0.765. For the same cell line, the relative viability (Tipifarnib + Foretinib; first compound 1 µM) was 0.587, the relative viability (Tipifarnib + Tozasertib; first compound 0.01 µM) was 0.427 and the relative viability (Tipifarnib + Tozasertib; first compound 0.03162 µM) was 0.39. For the same cell line, the relative viability (Tipifarnib + Tozasertib; first compound 0.1 µM) was 0.441, the relative viability (Tipifarnib + Tozasertib; first compound 0.3162 µM) was 0.413 and the relative viability (Tipifarnib + Tozasertib; first compound 1 µM) was 0.368. The relative viability (Tipifarnib; 0.01 µM) was 1.07, the relative viability (Tipifarnib; 0.03162 µM) was 1.12 and the relative viability (Tipifarnib; 0.1 µM) was 0.946. The relative viability (Tipifarnib; 0.3162 µM) was 0.886 and the relative viability (Tipifarnib; 1 µM) was 0.818.
